# Experimental data: patent US20210290784A1, “POSITRON EMISSION TOMOGRAPHY (PET) RADIOTRACERS FOR IMAGING MACROPHAGE COLONY-STIMULATING FACTOR 1 RECEPTOR (CSF1R) IN NEUROINFLAMMATION” (The Johns Hopkins University, priority 2018, published 2021)
# Tests used:
# [1] = Plasma free fraction, centrifree ultrafiltration; type: in vitro ADME; conditions: baboon plasma, not affected by LPS or LPS and blocking
# CSF1R [2] = molecular target: CSF1R (Homo sapiens, UniProt P07333); experiment: Postmortem human brain autoradiography; type: binding; set-up: from tissue; conditions: for Autoradiography binding, Baseline: inferior parietal cortex slices
# Sequence of CSF1R (Homo sapiens, UniProt P07333) (P07333 20-972): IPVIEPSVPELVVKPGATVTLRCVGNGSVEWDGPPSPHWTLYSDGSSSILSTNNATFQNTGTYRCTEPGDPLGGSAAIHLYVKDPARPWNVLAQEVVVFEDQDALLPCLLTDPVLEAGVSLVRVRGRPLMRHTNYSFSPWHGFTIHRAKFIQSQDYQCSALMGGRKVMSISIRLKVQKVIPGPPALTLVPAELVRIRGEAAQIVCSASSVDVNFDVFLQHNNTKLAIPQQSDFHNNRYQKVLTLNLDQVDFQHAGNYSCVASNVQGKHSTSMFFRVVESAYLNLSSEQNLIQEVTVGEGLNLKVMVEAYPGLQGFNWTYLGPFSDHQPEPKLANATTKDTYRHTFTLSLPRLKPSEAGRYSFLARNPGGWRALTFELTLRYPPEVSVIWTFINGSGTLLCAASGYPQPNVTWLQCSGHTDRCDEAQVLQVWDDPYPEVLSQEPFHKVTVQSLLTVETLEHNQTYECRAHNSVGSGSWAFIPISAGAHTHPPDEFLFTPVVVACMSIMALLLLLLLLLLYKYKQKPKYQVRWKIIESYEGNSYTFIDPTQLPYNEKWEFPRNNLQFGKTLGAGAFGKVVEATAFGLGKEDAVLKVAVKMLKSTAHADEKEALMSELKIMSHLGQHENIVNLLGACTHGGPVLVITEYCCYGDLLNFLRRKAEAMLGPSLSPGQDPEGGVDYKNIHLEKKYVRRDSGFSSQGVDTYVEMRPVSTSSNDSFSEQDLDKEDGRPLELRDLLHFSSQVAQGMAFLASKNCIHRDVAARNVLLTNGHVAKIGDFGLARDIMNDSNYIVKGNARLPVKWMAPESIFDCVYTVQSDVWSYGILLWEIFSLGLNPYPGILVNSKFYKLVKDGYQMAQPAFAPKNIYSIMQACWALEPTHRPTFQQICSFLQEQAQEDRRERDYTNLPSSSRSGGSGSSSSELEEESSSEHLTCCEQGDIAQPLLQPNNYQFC
# Description: Use of human tissues has been approved by the Institutional Review Board of the Johns Hopkins Medical Institutions. […] The slides were exposed to X-ray film and analyzed with outcome expressed as pmol/mm^3 of wet tissue±SD.
# CSF1R [3] = molecular target: T1, CSF1R (Mus musculus, UniProt P09581); experiment: Brain uptake in intracranial LPS (i.c.-LPS) mouse model of neuroinflammation; type: in vivo; set-up: from tissue; host or cells: brain of living CD-1, C57BL/6J, transgenic APP (AD model), EAE and CSF1R KO mice; conditions: i.c.-LPS mice
# T1 sequence (P09581 20-977): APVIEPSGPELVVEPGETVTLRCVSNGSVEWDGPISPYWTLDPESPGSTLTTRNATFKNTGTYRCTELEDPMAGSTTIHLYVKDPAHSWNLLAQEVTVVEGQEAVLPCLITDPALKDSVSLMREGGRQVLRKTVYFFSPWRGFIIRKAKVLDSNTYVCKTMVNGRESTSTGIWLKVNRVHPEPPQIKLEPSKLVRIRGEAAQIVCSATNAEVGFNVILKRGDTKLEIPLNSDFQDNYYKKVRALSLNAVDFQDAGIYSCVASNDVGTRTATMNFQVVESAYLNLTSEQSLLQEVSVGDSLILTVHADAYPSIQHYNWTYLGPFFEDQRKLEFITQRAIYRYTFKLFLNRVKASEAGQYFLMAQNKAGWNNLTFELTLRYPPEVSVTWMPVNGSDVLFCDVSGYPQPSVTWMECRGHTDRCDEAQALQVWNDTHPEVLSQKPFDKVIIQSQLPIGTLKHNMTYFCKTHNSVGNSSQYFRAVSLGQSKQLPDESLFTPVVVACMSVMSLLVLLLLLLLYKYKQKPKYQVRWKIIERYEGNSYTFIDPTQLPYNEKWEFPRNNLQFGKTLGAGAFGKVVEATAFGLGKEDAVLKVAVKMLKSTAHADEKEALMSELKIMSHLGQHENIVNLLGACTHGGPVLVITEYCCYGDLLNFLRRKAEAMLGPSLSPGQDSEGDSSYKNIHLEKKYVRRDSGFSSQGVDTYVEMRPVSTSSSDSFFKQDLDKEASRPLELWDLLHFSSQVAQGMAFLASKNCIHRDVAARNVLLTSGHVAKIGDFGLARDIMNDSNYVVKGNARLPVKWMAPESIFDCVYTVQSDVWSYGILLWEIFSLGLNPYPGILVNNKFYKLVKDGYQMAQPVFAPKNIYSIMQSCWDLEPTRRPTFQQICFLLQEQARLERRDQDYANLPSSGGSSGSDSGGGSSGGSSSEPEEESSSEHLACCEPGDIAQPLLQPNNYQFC
# Method: (§1) Experiment 1, FIG. 1A. […] CD1 mice were anaesthetized with avertin (250 mg/kg, IP). Peri-procedural analgesia was provided with finadine (2.5 mg/kg, SC). The coordinates for intraparenchymal injection in the right forebrain were AP −0.5 mm′ DV −2.5 mm; and ML 1.0 right of midline. The holes were drilled perpendicularly to the previously exposed skull. Sterile phosphate buffered saline (PBS) (0.5 μL) or 5 μg lipopolysaccharide (LPS, 011:B4, Calbiochem, San Diego, Calif.) in 0.5 μL PBS was injected into the brain parenchyma using a 1 μL Hamilton syringe. After injection, the needle was kept in the brain for additional 3 min and slowly removed. The incision was sealed with dental cement. […] The whole brains were removed and dissected on ice. […] The outcome variables were calculated as % SUV.
# as §1, with “2,” for “1,”, “1B.” for “1A.”, “The” for “CD1”
smiles,measurement,setting,value
"[11CH3]N1CCN(c2ccc(NC(=O)c3ccc(C#N)o3)c(N3CCCCC3)c2)CC1 [[^11C]CPPC, 5-cyano-N-(4-(4-[^11C]methylpiperazin-1-yl)-2-(piperidin-1-yl)phenyl)furan-2-carboxamide]",fraction unbound,[1],0.0548 ± 0.0098
same,increase of radiotracer binding in AD brain vs. control brain slices,CSF1R [2]; baseline autoradiography,75-99%
same,"Autoradiography binding, Blocking with unlabeled CPPC",CSF1R [2]; sample 1-AD,4.72 ± 1.07 pmol/mm3
same,"Autoradiography binding, Baseline",CSF1R [2]; sample 1-AD,8.18 ± 0.68 pmol/mm3
same,"Autoradiography binding, Blocking with unlabeled CPPC",CSF1R [2]; sample 2-AD,2.67 ± 0.53 pmol/mm3
same,"Autoradiography binding, Baseline",CSF1R [2]; sample 2-AD,7.20 ± 1.55 pmol/mm3
same,"Autoradiography binding, Blocking with unlabeled CPPC",CSF1R [2]; sample 3-AD,3.73 ± 1.07 pmol/mm3
same,"Autoradiography binding, Baseline",CSF1R [2]; sample 3-AD,7.43 ± 1.59 pmol/mm3
same,"Autoradiography binding, Blocking with unlabeled CPPC",CSF1R [2]; sample 4-control,2.86 ± 1.06 pmol/mm3
same,"Autoradiography binding, Baseline",CSF1R [2]; sample 4-control,4.11 ± 1.14 pmol/mm3
same,specific fraction of elevated binding vs. sham animals,CSF1R [3],~50%
same,"reduction of uptake by blocking with nonradiolabeled CPPC, low dose",CSF1R [3]; blocker 0.3 mg/kg IP,insignificant
same,"reduction of uptake by blocking with nonradiolabeled CPPC, higher doses",CSF1R [3]; blocker 0.6 or […] IP,significantly reduced
